Our source for the MIC values is ChEMBL document CHEMBL4145497, “Discovery of 2-aminothiazolyl berberine derivatives as effectively antibacterial agents toward clinically drug-resistant Gram-negative Acinetobacter baumanii” (Eur J Med Chem, 2018).

Converted amounts (≈) assume the structure as drawn.

Holding throughout (format): functional
One assay has as its system Candida parapsilosis. Briefly: Antifungal activity against Candida parapsilosis ATCC 22019 by CLSI two fold serial dilution method. The settings on record: Lodderomyces parapsilosis.
The subject of assay [1] is Staphylococcus aureus. Briefly: Antibacterial activity against methicillin-resistant Staphylococcus aureus N315 after 18 to 24 hrs by CLSI two fold serial dilution method.
The subject of the next assay is Acinetobacter baumannii. Briefly: Antibacterial activity against drug-resistant Acinetobacter baumannii after 18 to 24 hrs by CLSI two fold serial dilution method.
Assay [2] has as its system Candida albicans. The experiment in a line: Antifungal activity against Candida albicans ATCC 76615 by CLSI two fold serial dilution method.
For the next assay, the system named is Micrococcus luteus. The experiment in a line: Antibacterial activity against Micrococcus luteus ATCC 4698 after 18 to 24 hrs by CLSI two fold serial dilution method.
Assay [3] concerns Staphylococcus aureus. Briefly: Antibacterial activity against Staphylococcus aureus ATCC 25923 after 18 to 24 hrs by CLSI two fold serial dilution method.
A further assay concerns Saccharomyces cerevisiae. Briefly: Antifungal activity against Saccharomyces cerevisiae ATCC 9763 by CLSI two fold serial dilution method.
A further assay has as its system Pichia norvegensis. Briefly: Antifungal activity against Candida mycoderma ATCC 96918 by CLSI two fold serial dilution method.
In assay [4] the test system is Pseudomonas aeruginosa. Briefly: Antibacterial activity against drug-resistant Pseudomonas aeruginosa after 18 to 24 hrs by CLSI two fold serial dilution method.
The next assay relates to Klebsiella pneumoniae. Briefly: Antibacterial activity against drug-resistant Klebsiella pneumoniae after 18 to 24 hrs by CLSI two fold serial dilution method.
For another assay, the system named is Bacillus subtilis. Briefly: Antibacterial activity against Bacillus subtilis ATCC 21216 after 18 to 24 hrs by CLSI two fold serial dilution method.
The next assay deals with Enterococcus faecalis. The experiment in a line: Antibacterial activity against drug-resistant Enterococcus faecalis after 18 to 24 hrs by CLSI two fold serial dilution method.
Assay [5] deals with Escherichia coli. The experiment in a line: Antibacterial activity against Escherichia coli DH52 after 18 to 24 hrs by CLSI two fold serial dilution method.
The test system of a further assay is Cyberlindnera jadinii. The experiment in a line: Antifungal activity against Candida utilis ATCC 9950 by CLSI two fold serial dilution method. As to conditions: Williopsis jadinii.
Another assay relates to Aspergillus fumigatus. Briefly: Antifungal activity against drug-resistant Aspergillus fumigatus by CLSI two fold serial dilution method.
Another assay deals with Aspergillus flavus. Briefly: Antifungal activity against Aspergillus flavus ATCC 204304 by CLSI two fold serial dilution method.
Assay [6] concerns Escherichia coli. Briefly: Antibacterial activity against drug-resistant Escherichia coli after 18 to 24 hrs by CLSI two fold serial dilution method.
The subject of assay [7] is Pseudomonas aeruginosa. The experiment in a line: Antibacterial activity against Pseudomonas aeruginosa ATCC 27853 after 18 to 24 hrs by CLSI two fold serial dilution method.
Assay [8] concerns Candida albicans. Briefly: Antifungal activity against drug-resistant Candida albicans by CLSI two fold serial dilution method.
Another assay concerns Candida tropicalis. Briefly: Antifungal activity against drug-resistant Candida tropicalis by CLSI two fold serial dilution method.

As a reminder, the MIC is the lowest concentration found to suppress growth.

As to `COc1cc(/C=N/NC(N)=S)c2c(c1OCCO)CN1CCc3cc4c(cc3C1C2)OCO4` (configuration not stated), the MIC was 20 µM (≈ 9.41 µg/mL) in the assay with Candida parapsilosis; 270 µM (≈ 127 µg/mL) against Staphylococcus aureus [1]; 540 µM (≈ 254 µg/mL) with Acinetobacter baumannii; 270 µM (≈ 127 µg/mL) in the assay with Candida albicans [2]; 270 µM (≈ 127 µg/mL) against Micrococcus luteus; 270 µM (≈ 127 µg/mL) in the assay on Staphylococcus aureus [3]. In addition, the minimal inhibitory concentration (MIC) was found to be 540 µM (≈ 254 µg/mL) in the assay on Saccharomyces cerevisiae; 140 µM (≈ 65.9 µg/mL) in the assay on Pichia norvegensis; 140 µM (≈ 65.9 µg/mL) against Pseudomonas aeruginosa [4]; 270 µM (≈ 127 µg/mL) against Klebsiella pneumoniae; 270 µM (≈ 127 µg/mL) in the assay with Bacillus subtilis; 30 µM (≈ 14.1 µg/mL) in the assay with Enterococcus faecalis. The MIC in the assay with Escherichia coli [5] stood at 270 µM (≈ 127 µg/mL); with Cyberlindnera jadinii, 270 µM (≈ 127 µg/mL); in the assay on Aspergillus fumigatus, 270 µM (≈ 127 µg/mL); against Aspergillus flavus, 270 µM (≈ 127 µg/mL); against Escherichia coli [6] it was 270 µM (≈ 127 µg/mL); with Pseudomonas aeruginosa [7], 140 µM (≈ 65.9 µg/mL). The MIC against Candida albicans [8] and against Candida tropicalis was 270 µM (≈ 127 µg/mL) in each case.
With `CCCCCCCCCCCCOc1c(OC)cc(/C=N/NC(N)=S)c2c1CN1CCc3cc4c(cc3C1C2)OCO4` (configuration not stated), the minimum inhibitory concentration (MIC) against Candida parapsilosis is 220 µM (≈ 131 µg/mL); against Staphylococcus aureus [1], 110 µM (≈ 65.4 µg/mL); in the assay on Acinetobacter baumannii it was 7 µM (≈ 4.16 µg/mL); against Candida albicans [2], 110 µM (≈ 65.4 µg/mL); against Micrococcus luteus, 110 µM (≈ 65.4 µg/mL); with Staphylococcus aureus [3], 110 µM (≈ 65.4 µg/mL). In addition, the MIC against Saccharomyces cerevisiae was determined as 220 µM (≈ 131 µg/mL); against Pichia norvegensis, 220 µM (≈ 131 µg/mL); against Pseudomonas aeruginosa [4], 110 µM (≈ 65.4 µg/mL); in the assay with Klebsiella pneumoniae, 430 µM (≈ 256 µg/mL); in the assay on Bacillus subtilis, 430 µM (≈ 256 µg/mL); with Enterococcus faecalis it was 220 µM (≈ 131 µg/mL). Moreover, the MIC against Escherichia coli [5] was 110 µM (≈ 65.4 µg/mL); against Cyberlindnera jadinii, 430 µM (≈ 256 µg/mL); against Aspergillus fumigatus, 7 µM (≈ 4.16 µg/mL); against Aspergillus flavus, 430 µM (≈ 256 µg/mL); against Escherichia coli [6], 110 µM (≈ 65.4 µg/mL); with Pseudomonas aeruginosa [7], 110 µM (≈ 65.4 µg/mL). The minimum inhibitory concentration (MIC) with Candida albicans [8] stood at 110 µM (≈ 65.4 µg/mL); against Candida tropicalis it was 50 µM (≈ 29.7 µg/mL).
Take `CCCCCCCCOc1c(OC)cc(/C=N/Nc2nccs2)c2c1CN1CCc3cc4c(cc3C1C2)OCO4` (configuration not stated): the MIC against Candida parapsilosis was determined as 230 µM (≈ 129 µg/mL); against Candida albicans [2] it was 230 µM (≈ 129 µg/mL); against Micrococcus luteus, 450 µM (≈ 253 µg/mL); in the assay on Staphylococcus aureus [3], 230 µM (≈ 129 µg/mL); in the assay with Saccharomyces cerevisiae it was 460 µM (≈ 259 µg/mL); against Pichia norvegensis, 460 µM (≈ 259 µg/mL). For the same molecule, the minimum inhibitory concentration (MIC) against Bacillus subtilis was 450 µM (≈ 253 µg/mL); against Escherichia coli [5], 450 µM (≈ 253 µg/mL); in the assay on Cyberlindnera jadinii, 460 µM (≈ 259 µg/mL); in the assay with Aspergillus flavus, 460 µM (≈ 259 µg/mL); against Pseudomonas aeruginosa [7], 230 µM (≈ 129 µg/mL).
As to `CCn1cc(C(=O)O)c(=O)c2cc(F)c(N3CCNCC3)cc21` [NORFLOXACIN], the MIC stood at 30 µM (≈ 9.58 µg/mL) against Staphylococcus aureus [1]; 800 µM (≈ 255 µg/mL) against Acinetobacter baumannii; 6 µM (≈ 1.92 µg/mL) in the assay with Micrococcus luteus; 2 µM (≈ 0.639 µg/mL) against Staphylococcus aureus [3]; 1600 µM (≈ 511 µg/mL) against Pseudomonas aeruginosa [4]; 800 µM (≈ 255 µg/mL) against Klebsiella pneumoniae. Further, the minimum inhibitory concentration (MIC) against Bacillus subtilis came to 3 µM (≈ 0.958 µg/mL); with Enterococcus faecalis, 800 µM (≈ 255 µg/mL); in the assay with Escherichia coli [5], 50 µM (≈ 16 µg/mL); in the assay with Escherichia coli [6], 1600 µM (≈ 511 µg/mL); against Pseudomonas aeruginosa [7], 50 µM (≈ 16 µg/mL).
In the case of `CCCCCCCCCCCCOc1c(OC)cc(/C=N/Nc2nccs2)c2c1CN1CCc3cc4c(cc3C1C2)OCO4` (configuration not stated), the MIC against Candida parapsilosis was found to be 30 µM (≈ 18.6 µg/mL); in the assay with Candida albicans [2], 410 µM (≈ 254 µg/mL); against Micrococcus luteus it was 830 µM (≈ 514 µg/mL); against Staphylococcus aureus [3], 210 µM (≈ 130 µg/mL); against Saccharomyces cerevisiae, 830 µM (≈ 514 µg/mL); against Pichia norvegensis it was 50 µM (≈ 30.9 µg/mL). In addition, the MIC came to 30 µM (≈ 18.6 µg/mL) in the assay with Bacillus subtilis; 210 µM (≈ 130 µg/mL) against Escherichia coli [5]; 410 µM (≈ 254 µg/mL) in the assay with Cyberlindnera jadinii; 410 µM (≈ 254 µg/mL) in the assay on Aspergillus flavus; 410 µM (≈ 254 µg/mL) with Pseudomonas aeruginosa [7].
With `OC(Cn1cncn1)(Cn1cncn1)c1ccc(F)cc1F` [FLUCONAZOLE], the minimum inhibitory concentration (MIC) in the assay with Candida parapsilosis stood at 7 µM (≈ 2.14 µg/mL); in the assay with Candida albicans [2] it was 3 µM (≈ 0.919 µg/mL); against Saccharomyces cerevisiae, 50 µM (≈ 15.3 µg/mL); against Pichia norvegensis, 10 µM (≈ 3.06 µg/mL); against Cyberlindnera jadinii it was 30 µM (≈ 9.19 µg/mL); against Aspergillus fumigatus, 840 µM (≈ 257 µg/mL). Also, the MIC against Aspergillus flavus was determined as 840 µM (≈ 257 µg/mL); in the assay with Candida albicans [8], 10 µM (≈ 3.06 µg/mL); against Candida tropicalis, 30 µM (≈ 9.19 µg/mL).
